According to patent US8912144B2, “Method for treating stroke via administration of NEP1-40 and inosine” (Children's Medical Center Corporation, priority 2003, dated 2014):

Tested on: corticospinal neurons (CSNs/CSMNs)
Assay: Laser-capture microdissection and Illumina microarray gene expression in corticospinal neurons contralateral to stroke
Format: in vivo, rat
Procedure: In a separate group of animals (n=20), layer V pyramidal cells of the sensorimotor cortex were retrogradely labeled by injecting Alexa-Fluor-488-conjugated cholera toxin B subunit (CTB; 300 U/μl in sterile saline) into the cervical spinal cord. For this, animals were anesthetized with a combination of ketamine and Domitor (medetomidine) and a laminectomy was performed at the cervical level of the spinal cord (C2-C4). CTB was stereotaxically delivered into four sites lateral to the corticospinal tract. Injections (1.3 μl) were spaced 1 mm apart on the rostro-caudal axis, and were made 0.5 mm to the left and right of the midline. After allowing two weeks for transport of the tracer, we performed either sham surgery with no treatment (n=6) or stroke surgery combined with saline (n=3) or inosine (n=4) treatment as described above. Seven days later, animals were decapitated under transient gas anesthesia, brains were removed and rinsed in cold RPMI medium, and a tissue block containing the sensorimotor cortex was dissected and placed in OCT Tissue Tek Medium (Sakura Finetek USA Inc., CA) on dry ice within five minutes of death. Ten μm sections were cut onto precleaned Gold Seal RITE-ON glass slides (Gold Seal Prod-ucts, Portsmouth, N.H.), placed on dry ice, and rapidly stored at −80° C.
Slide-mounted sections were thawed and dehydrated in RNAse-free ethanol gradients and xylene. Retro-gradely labeled, fluorescent cortical pyramidal cells in the undamaged hemisphere were individually captured using the Arcturus VERITAS system. ≧500 cells were collected from each animal and stored in Arcturus extraction buffer at −80° C. Total RNA was extracted from cells using the Micro-to-Midi TotalRNA Purification System (Invitrogen, Carlsbad Calif.) and double-amplified using the TargetAmp 2-Round Aminoallyl-aRNA Amplification kit 1.0 (Epicentre, Madison, Wis.). Amplified RNA was checked for average fragment length using the Agilent RNA 6000 Nano LabChip kit (Agilent Technologies, Santa Clara, Calif.) and then biotinylated and hybridized (1 μg) on Illumina RatRef-12 Expression BeadChip arrays (Illumina, San Diego Calif.), querying the expression of >22,000 RefSeq-curated rat transcripts. Results were obtained from a total of 15 samples representing 6 untreated controls, 4 animals with stroke treated with saline and 5 animals with stroke treated with inosine. Slides were processed and scanned with Illumina BeadStation platform according to the manufacturer protocol.
Raw data was analyzed using Bioconductor packages (www.bioconductor.org, (Gentleman et al., 2004)). Low level quality-control analysis was performed using inter-array Pearson correlation and clustering based on variance. Two arrays (1 saline and 1 inosine-treated) were outliers and were excluded from the analysis. Data was normalized using quantile normalization, and analysis of differential expression was performed using a linear model fitting (LIMMA package, (Smyth, 2005). Differentially expressed genes were classified according to gene ontology using Bioconductor packages and online tools (DAVID, http://david.abcc.ncifcrf.gov/). Pathway analysis was carried out using Ingenuity Pathway Analysis (Ingenuity Systems, www.ingenuity.com).

OC[C@H]1O[C@@H](n2cnc3c(O)ncnc32)[C@H](O)[C@@H]1O [inosine]
Signal Intensity, Spnb4 (ILMN_66300, inosine after stroke): 1147 | Fold-Induction Stroke, ino vs. cntrl, Bbp (ILMN_66323): 0.58 | Signal Intensity, Bbp (ILMN_66323, inosine after stroke): 1150 | Fold-Induction Stroke, ino vs. cntrl, LOC305122 (ILMN_66350): 0.58 | Signal Intensity, LOC305122 (ILMN_66350, inosine after stroke): 771 | Fold-Induction Stroke, ino vs. cntrl, Plekhb1 (ILMN_66651): 0.62 | Signal Intensity, Plekhb1 (ILMN_66651, inosine after stroke): 1687 | Fold-Induction Stroke, ino vs. cntrl, Ppp1r11 (ILMN_66809): 0.90 | Signal Intensity, Ppp1r11 (ILMN_66809, inosine after stroke): 865 | Fold-Induction Stroke, ino vs. cntrl, LOC501538 (ILMN_66820): 0.64 | Signal Intensity, LOC501538 (ILMN_66820, inosine after stroke): 1132 | Fold-Induction Stroke, ino vs. cntrl, Slc25a11 (ILMN_66823): 0.65 | Signal Intensity, Slc25a11 (ILMN_66823, inosine after stroke): 263 | Fold-Induction Stroke, ino vs. cntrl, Optn (ILMN_67016): 0.69 | Signal Intensity, Optn (ILMN_67016, inosine after stroke): 360 | Fold-Induction Stroke, ino vs. cntrl, Lxn (ILMN_67020): 0.72 | Signal Intensity, Lxn (ILMN_67020, inosine after stroke): 433 | Fold-Induction Stroke, ino vs. cntrl, Psmc5 (ILMN_67036): 0.54 | Signal Intensity, Psmc5 (ILMN_67036, inosine after stroke): 1620 | Fold-Induction Stroke, ino vs. cntrl, MGC72992 (ILMN_67222): 0.63 | Signal Intensity, MGC72992 (ILMN_67222, inosine after stroke): 359 | Fold-Induction Stroke, ino vs. cntrl, Ywhaq (ILMN_67273): 0.66 | Signal Intensity, Ywhaq (ILMN_67273, inosine after stroke): 2844 | Fold-Induction Stroke, ino vs. cntrl, LOC498696 (ILMN_67275): 0.51 | Signal Intensity, LOC498696 (ILMN_67275, inosine after stroke): 514 | Fold-induction CSMNs: Cd63 (ILMN_67382, over and above inosine's effect of decreasing stroke-induced changes): 2.10 fold | Fold-Induction Stroke, ino vs. cntrl, Ggcx (ILMN_67463): 0.93 | Signal Intensity, Ggcx (ILMN_67463, inosine after stroke): 526 | Fold-Induction Stroke, ino vs. cntrl, Kif3b (ILMN_67572): 0.79 | Signal Intensity, Kif3b (ILMN_67572, inosine after stroke): 642 | Fold-Induction Stroke, ino vs. cntrl, Zfp422 (ILMN_67578): 0.99 | Signal Intensity, Zfp422 (ILMN_67578, inosine after stroke): 557 | Fold-induction CSMNs: Ms4a6b (ILMN_67686, over and above inosine's effect of decreasing stroke-induced changes): 2.03 fold | Fold-Induction Stroke, ino vs. cntrl, Dcamkl1 (ILMN_67724): 0.59 | Signal Intensity, Dcamkl1 (ILMN_67724, inosine after stroke): 4398 | Fold-Induction Stroke, ino vs. cntrl, LOC501601 (ILMN_67885): 0.54 | Signal Intensity, LOC501601 (ILMN_67885, inosine after stroke): 791 | Fold-Induction Stroke, ino vs. cntrl, Ca2 (ILMN_67903): 0.47 | Signal Intensity, Ca2 (ILMN_67903, inosine after stroke): 1008 | Fold-Induction Stroke, ino vs. cntrl, LOC287622 (ILMN_67961): 0.69 | Signal Intensity, LOC287622 (ILMN_67961, inosine after stroke): 400 | Fold-induction CSMNs: Gfap (ILMN_68224, over and above inosine's effect of decreasing stroke-induced changes): 2.46 fold | Fold-Induction Stroke, ino vs. cntrl, Lkap (ILMN_68337): 0.64 | Signal Intensity, Lkap (ILMN_68337, inosine after stroke): 758 | Fold-Induction Stroke, ino vs. cntrl, Gsn (ILMN_68511): 0.64 | Signal Intensity, Gsn (ILMN_68511, inosine after stroke): 2157 | Fold-Induction Stroke, ino vs. cntrl, Flot2 (ILMN_68584): 0.70 | Signal Intensity, Flot2 (ILMN_68584, inosine after stroke): 667 | Fold-Induction Stroke, ino vs. cntrl, Rab40b (ILMN_68736): 0.63 | Signal Intensity, Rab40b (ILMN_68736, inosine after stroke): 476 | Fold-Induction Stroke, ino vs. cntrl, Dhcr24 (ILMN_68892): 0.53 | Signal Intensity, Dhcr24 (ILMN_68892, inosine after stroke): 1032 | Fold-Induction Stroke, ino vs. cntrl, Sfxn3 (ILMN_68903): 0.57 | Signal Intensity, Sfxn3 (ILMN_68903, inosine after stroke): 261 | Fold-Induction Stroke, ino vs. cntrl, Tde2 (ILMN_68952): 0.53 | Signal Intensity, Tde2 (ILMN_68952, inosine after stroke): 545 | Fold-Induction Stroke, ino vs. cntrl, RGD1309158 (ILMN_69031): 0.52 | Signal Intensity, RGD1309158 (ILMN_69031, inosine after stroke): 630 | Fold-Induction Stroke, ino vs. cntrl, LOC289036 (ILMN_69224): 0.72 | Signal Intensity, LOC289036 (ILMN_69224, inosine after stroke): 1532 | Fold-induction CSMNs: Arpc1b (ILMN_69642, over and above inosine's effect of decreasing stroke-induced changes): 2.31 fold | Fold-Induction Stroke, ino vs. cntrl, Ubl3 (ILMN_69708): 0.83 | Signal Intensity, Ubl3 (ILMN_69708, inosine after stroke): 479 | Fold-Induction, complement cascade gene Bf (B-factor, properdin) (ILMN_69719, LCM-captured CSMNs contralateral a stroke): 2.73 fold | Fold-Induction Stroke, ino vs. cntrl, LOC296126 (ILMN_69931): 0.64 | Signal Intensity, LOC296126 (ILMN_69931, inosine after stroke): 332 | Fold-Induction Stroke, ino vs. cntrl, LOC315463 (ILMN_69949): 0.54 | Signal Intensity, LOC315463 (ILMN_69949, inosine after stroke): 709 | Fold-Induction Stroke, ino vs. cntrl, Zfp216 (ILMN_70270): 0.66 | Signal Intensity, Zfp216 (ILMN_70270, inosine after stroke): 888 | Fold-induction CSMNs: A2m (ILMN_70335, over and above inosine's effect of decreasing stroke-induced changes): 4.10 fold | Fold-Induction Stroke, ino vs. cntrl, LOC366188 (ILMN_70369): 0.85 | Signal Intensity, LOC366188 (ILMN_70369, inosine after stroke): 1100
